Test results published in PubChem BioAssay (NCI).
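Values below derive from 48-hour exposures of cells grown in 96-well plates, with endpoints linearly interpolated between the two concentrations bracketing the appropriate inhibition level. Here, GI50 denotes the concentration required for 50% inhibition of growth. Definition used: TGI = concentration required for complete inhibition of growth.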

Key:
Assay in all cases: NCI-60 cell line screen, 48 h
[1] = test system: PC-3 prostate
[2] = test system: NCI/ADR-RES ovarian
[3] = test system: MCF7 breast
[4] = test system: UO-31 renal
[5] = test system: HS 578T breast
[6] = test system: SK-MEL-2 melanoma
[7] = test system: LOX IMVI melanoma
[8] = test system: HCC-2998 colon
[9] = test system: OVCAR-4 ovarian
[10] = test system: BT-549 breast

Structure (SMILES) | GI50 [1] [µM] | TGI [1] [µM] | GI50 [2] [µM] | TGI [2] [µM] | GI50 [3] [µM] | TGI [3] [µM] | GI50 [4] [µM] | TGI [4] [µM] | GI50 [5] [µM] | TGI [5] [µM] | GI50 [6] [µM] | TGI [6] [µM] | GI50 [7] [µM] | TGI [7] [µM] | GI50 [8] [µM] | TGI [8] [µM] | GI50 [9] [µM] | TGI [9] [µM] | GI50 [10] [µM] | TGI [10] [µM]
O=c1c(Oc2ccc(F)cc2F)cc2cnc(NC3CCOCC3)nc2n1CCCO | > 25 | > 25 | > 25 | > 25 | > 25 | > 25 | > 11.3 | > 21.1 | > 25 | > 25 | > 25 | > 25 | > 25 | > 25 | > 25 | > 25 | > 14.6 | > 25 | > 25 | > 25
CCC[CH2][Sn]([CH2]CCC)([CH2]CCC)[O]c1ccc(Cl)cc1Cl | 0.15 | 0.443 | 0.141 | 0.312 | 0.125 | 0.255 | 0.0572 | 0.203 |  |  | 0.152 | 0.295 | 0.111 | 0.253 | 0.0949 | 0.226 | 0.114 | 0.236 | 0.154 | 0.315
COc1ccc2c(c1)C(=O)c1c-2n(CCCN=[N+]=[N-])c(=O)c2cc(OC)c(OC)cc12 | 50 | > 100 | 80.1 | > 100 | 81.4 | > 100 | 44.3 | > 100 | 70 | > 100 | > 100 | > 100 | 25.1 | > 100 | 13.7 | > 100 | > 100 | > 100 | > 100 | > 100
C=C(C)C(=O)O[C@H]1C[C@@]23O[C@@H]2CCC(=C[C@H]2OC(=O)C(=C)[C@H]12)COC3O (some centres undefined) |  | > 100 |  | > 100 |  | > 100 |  |  |  | > 100 |  | > 100 |  | 30.5 |  | > 100 |  | > 100 |  | > 100
CC(C(=O)c1ccccc1)C(c1ccccc1)N1CCOCC1 (centres undefined) |  | > 100 |  | > 100 |  | > 100 |  |  |  | > 100 |  | > 100 |  | > 100 |  |  |  | > 100 |  | > 100
Nc1ccc(C2=NN(c3ccccc3)C(c3ccc(Cl)cc3)C2)cc1 (centres undefined) |  |  | 3.64 | 19.4 | 1.32 | 3.82 | 1.54 | 3.06 | 5.7 | 50.5 |  |  | 1.66 | 3.05 | 1.86 | 3.29 | 4.84 | 45.5 | 2.21 | 5.32
COc1cccc(-c2nc3sccn3c2-c2ccnc(NCCCNS(=O)(=O)c3cccc(F)c3)c2)c1 | 2.12 | 11.6 | 2.09 | 6.41 | 2.49 | > 100 | 1.25 | 5.37 | 3 | > 100 | 2.18 | 5.44 | 2.63 | 14.8 | 5.12 | > 100 |  |  | 2.39 | 7.05
